Experimental data published in patent US9593305B2, “Differentiation of pluripotent stem cells” (Janssen Biotech, Inc., priority 2008, dated 2017).
“And” between values parts separate entries of the source, which are not always exact repeats. Equal values may be shown once.

Test system: H1 human embryonic stem cells
Experiment: Compounds and growth factors with low dose activin A (Example 9, Table 9)
Type: cell-based
Description: Clusters of H1 human embryonic stem cells were grown on reduced growth factor […]™ (Invitrogen; Cat #356231)-coated tissue culture plastic. Cells were passaged using collagenase (Invitrogen; Cat #17104-019) treatment and gentle scraping, washed to remove residual enzyme, and plated with even dispersal at a ratio of 1:1 (surface area) on reduced growth factor […]™-coated 96-well black plates (Packard ViewPlates; PerkinElmer; Cat #6005182) using volumes of 100 μl/well. Cells were allowed to attach as clusters and then recover log phase growth over a 1 to 3 day period, feeding daily with MEF conditioned medium supplemented with 8 ng/ml bFGF (R&D Systems; Cat #233-FB). Plates were maintained at 37° C., 5% CO2 in a humidified box throughout the duration of assay.
Stocks of growth factors purchased from R&D Systems were EGF (Cat #236-EG), FGF4 (Cat #235-F4), PDGF-A (Cat #221-AA), PDGF-D (Cat #1159-SB), PDGF-A/B (Cat #222-AB), VEGF (Cat #293-VE), and GDF-8 (Cat #788-08). Activin A was purchased from PeproTech (Cat #). Muscimol was purchased from Tocris (Cat #0289). All growth factors were solubilized in PBS with 0.1% BSA (Sigma; Cat #A7888) and stored frozen at −80° C. Muscimol was solubilized in 100% DMSO (Sigma; Cat #D2650) and stored frozen at −80° C. The compounds were available as 5 mM stocks in 96-well plate format, solubilized in 100% DMSO and stored at −80° C. The compounds were further diluted to an intermediate concentration of 0.2 mM in 50 mM HEPES (Invitrogen; Cat #15630-080), 20% DMSO and stored at 4° C. All growth factors and inhibitors were prepared in a deep well, 96-well polypropylene plate, diluted to 5× intermediate stocks in DMEM:F12 base medium at the beginning of assay and stored at 4° C.
A secondary screening assay was conducted, testing in triplicate and feeding on alternate days over the four-day assay timeframe. Assays were initiated by aspirating culture medium from each well followed by three washes in PBS to remove residual growth factors and serum. Test volumes of 80 μl per well were added back containing DMEM:F12 base medium (Invitrogen; Cat #11330-032) supplemented with 0.625% FCS (HyClone; Cat #SH30070.03), 25 ng/ml Wnt3a (R&D Systems), 12.5 ng/ml activin A, and 3.125 μM compound plus 20 μl 5× stock of growth factor or small molecule to yield a final concentration of 0.5% FCS, 20 ng/ml Wnt3a, 10 ng/ml activin A, and 2.5 μM compound. All remaining growth factors were tested at a final assay concentration of 50 ng/ml (EGF, FGF4, PDGF-A, PDGF-A/B, VEGF), with the exception of GDF-8 used at 25 ng/ml. Final assay concentration of muscimol was 20 μM. Positive control wells (100 μl/well) contained the same base medium supplemented with 0.5% FCS, 20 ng/ml Wnt3a and 10 ng/ml (low dose) or 100 ng/ml (high dose) activin A. Negative control wells (100 μl/well) contained the same base medium with 0.5% FCS and 20 ng/ml Wnt3a, omitting activin A.
Positive control wells (100 μl/well) contained the same base medium supplemented with 2% FCS and 10 ng/ml or 100 ng/ml activin A, omitting Wnt3a. Negative control wells (100 μl/well) contained the same base medium with 2% FCS, omitting both activin A and Wnt3a.
At the conclusion of four-days of culture, assay plates were washed twice with PBS, fixed with 4% paraformaldehyde (Alexis Biochemical; Cat #ALX-350-011) at room temperature for 20 minutes, then washed three times with PBS and permeabilized with 0.5% Triton X-100 (Sigma; Cat #T8760-2) for 20 minutes at room temperature. Cells were washed again three times with PBS and blocked with 4% chicken serum (Invitrogen; Cat #16110082) in PBS for 30 minutes at room temperature. Primary antibody (goat anti-human SOX17; R&D Systems; cat #AF1924) was diluted 1:100 in 4% chicken serum and added to each well for one hour at room temperature. […]

[1] = 10 ng/ml AA + compound + EGF + FGF4 + PDGF-A + Muscimol + Wnt3a
[2] = 10 ng/ml AA + compound + EGF + FGF4 + PDGF-A + VEGF + PDGF-D + Muscimol + GDF8 + Wnt3a
[3] = 10 ng/ml AA + compound + EGF + FGF4 + PDGF-AB + VEGF + Wnt3a
[4] = 10 ng/ml AA + compound + EGF + FGF4 + PDGF-AB + Wnt3a
[5] = 10 ng/ml AA + compound + EGF + FGF4 + Wnt3a
[6] = 10 ng/ml AA + compound + EGF + Wnt3a
[7] = 10 ng/ml AA + compound + FGF4 + Wnt3a
[8] = 10 ng/ml AA alone, no compound, no growth factors
[9] = 100 ng/ml AA alone, no compound, no growth factors

Molecule	Cell Number, % of positive control [1]	Cell Number, Average Total Cell Number [1]	Sox17 Expression, % of positive control [1]	Sox17 Expression, Average Total Intensity [1]	Cell Number, % of positive control [2]	Cell Number, Average Total Cell Number [2]	Sox17 Expression, % of positive control [2]	Sox17 Expression, Average Total Intensity [2]	Cell Number, % of positive control [3]	Cell Number, Average Total Cell Number [3]	Sox17 Expression, % of positive control [3]	Sox17 Expression, Average Total Intensity [3]	Cell Number, % of positive control [4]	Cell Number, Average Total Cell Number [4]	Sox17 Expression, % of positive control [4]	Sox17 Expression, Average Total Intensity [4]	Cell Number, % of positive control [5]	Cell Number, Average Total Cell Number [5]	Sox17 Expression, % of positive control [5]	Sox17 Expression, Average Total Intensity [5]	further results
O=C1NCCCc2cncc(c2)-c2ncnc(n2)Nc2cc(Cl)cc(c2)CN2CCCC1C2 (stereo not shown) [Compound 37, 10-Chloro-3,5,7,14,20,26,31-heptaazapentacyclo[22.3.1.1˜2,6˜0.1˜8,12˜0.1˜14,18˜]hentriaconta-1(28), 2(31), 3,5,8(30), 9,11,24,26-nonaen-19-one]	59.34 % of positive control	4540	0.83 % of positive control	9.23E+05	74.65 % of positive control	5711	10.82 % of positive control	1.21E+07	62.31 % of positive control	4767	−0.46 % of positive control	−5.16E+05	55.20 % of positive control	4223	−0.55 % of positive control	−6.15E+05	45.77 % of positive control	3501	0.50 % of positive control	5.60E+05	Cell Number, % of positive control [6]: 18.70 % of positive control; Cell Number, Average Total Cell Number [6]: 1431; Sox17 Expression, % of positive control [6]: −2.47 % of positive control; Sox17 Expression, Average Total Intensity [6]: −2.75E+06; Cell Number, % of positive control [7]: 51.37 % of positive control; Cell Number, Average Total Cell Number [7]: 3930; Sox17 Expression, % of positive control [7]: −1.69 % of positive control; Sox17 Expression, Average Total Intensity [7]: −1.88E+06; Cell Number, % of positive control (10 ng/ml AA + compound + Wnt3a): 10.34 % of positive control; Cell Number, Average Total Cell Number (10 ng/ml AA + compound + Wnt3a): 791; Sox17 Expression, % of positive control (10 ng/ml AA + compound + Wnt3a): −2.68 % of positive control; Sox17 Expression, Average Total Intensity (10 ng/ml AA + compound + Wnt3a): −2.99E+06
CN1CCC(=O)NCCCNc2ncccc2-c2ncnc(n2)Nc2cccc(c2)C1 [Compound 39, 9-Methyl-2,3,4,5,7,8,9,10-octahydro-16H-17,21-(azeno)-11,15-(metheno)pyrido[3,2-g][1,3,5,9,13,17]hexaazacyclotricosin-6(1H)-one]	37.64 % of positive control	2879	3.24 % of positive control	3.61E+06	75.00 % of positive control	5738	19.24 % of positive control	2.14E+07	33.08 % of positive control	2531	2.53 % of positive control	2.82E+06	39.07 % of positive control	2989	−0.02 % of positive control	−1.78E+04	9.59 % of positive control	734	−3.53 % of positive control	−3.93E+06	Cell Number, % of positive control [6]: 2.75 % of positive control; Cell Number, Average Total Cell Number [6]: 211; Sox17 Expression, % of positive control [6]: −4.08 % of positive control; Sox17 Expression, Average Total Intensity [6]: −4.54E+06; Cell Number, % of positive control [7]: 6.81 % of positive control; Cell Number, Average Total Cell Number [7]: 521; Sox17 Expression, % of positive control [7]: −4.01 % of positive control; Sox17 Expression, Average Total Intensity [7]: −4.46E+06; Cell Number, % of positive control (10 ng/ml AA + compound + Wnt3a): 6.78 % of positive control; Cell Number, Average Total Cell Number (10 ng/ml AA + compound + Wnt3a): 518; Sox17 Expression, % of positive control (10 ng/ml AA + compound + Wnt3a): −2.13 % of positive control; Sox17 Expression, Average Total Intensity (10 ng/ml AA + compound + Wnt3a): −2.37E+06
Activin A: recombinant human activin A (PeproTech), TGF-beta family member	–	–	–	–	–	–	–	–	–	–	–	–	–	–	–	–	–	–	–	–	Cell Number, % of positive control [8]: 67.67 % of positive control and 100.00 % of positive control; Cell Number, Average Total Cell Number [8]: 5177 and 6132; Cell Number, % of positive control [9]: 100.00 % of positive control and 157.51 % of positive control; Cell Number, Average Total Cell Number [9]: 7650 and 9658; Sox17 Expression, % of positive control [9]: 100.00 % of positive control; Sox17 Expression, Average Total Intensity [9]: 1.11E+08 and 1.14E+08
